Test results reported in PubChem BioAssay AID179 (DTP/NCI, 2004).
“And” between values parts separate entries of the source, which are not always exact repeats. Equal values may be shown once. The source made the active and inactive calls.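 The calls were made as follows: active = compounds giving half or more protection of infected cells from virus-caused growth loss, again on retest; inactive = the rest.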

System: CEM cells HIV-1 protection, formazan growth assay
Test: NCI AIDS Antiviral Assay
Details: for IC50: measured here: growth of uninfected CEM cells
How it was run: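 Protection of CEM cells against HIV-1 measured as cell growth via soluble formazan read-out, with five concentrations tested on both infected and uninfected cells; failure to protect may reflect toxicity.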

`CCCC1=C(OC)C(=O)c2c(C)cc(Cl)nc2C1=O` was tested, and the EC50 was > 200 µM and the IC50 was 4.07 µM.
In the case of `O=C1CSC(=Nc2ccccc2F)N1c1ccccc1F`, the EC50 is reported as > 107 µM and the IC50 is reported as > 107 µM.
For `Cc1cc2c(cc1Cl)SC(NNC1=NCCN1)=NS2(=O)=O`, the EC50 was > 200 µM and the IC50 was 115 µM.
With `N#CCC(=O)Nn1c(CC#N)nnc1Cc1ccccc1` the outcome was “inactive”.
`COC(=O)NC(C(F)(F)F)(C(F)(F)F)P1(=O)OCCCO1` was tested, and the EC50 was > 200 µM and the IC50 was 63.1 µM.
For `Cc1c2ccccc2nc(CS(C)=O)[n+]1[O-]` (stereo unspecified), the EC50 was > 200 µM and the IC50 was > 200 µM.
With `COc1ccc(Cc2nccc3cc(OC)c(OC)cc23)cc1` the EC50 was > 72.4 µM and the IC50 was 69.2 µM.
For `CCCN(CCC)C(=O)c1c(Cl)c2cccnc2n2c(C)cnc12`, the EC50 was > 200 µM and the IC50 was 70.8 µM.
`Cc1nn2c(=O)[nH]cnc2c1Cl` was tested, and the EC50 was > 229 µM and the IC50 was > 229 µM.
In the case of `CC12CC3(C)SC(C)(CC(C)(S1)S2)S3`, the outcome is reported as “inactive”.
With `Cn1c(=O)c(=O)n(C)c2nc3ccccc3nc21` the EC50 was > 4.27 µM and the IC50 was > 4.27 µM.
In the case of `O=C(O)C(CO)NC(=O)n1c2ccccc2c2ccccc21` (stereo unspecified), the EC50 is reported as > 832 µM and the IC50 is reported as 537 µM.
In the case of `CCc1ccccc1NNc1cc(=O)[nH]c(=O)[nH]1`, the EC50 is reported as > 200 µM and the IC50 is reported as 27.5 µM.
For `O=C(O)c1cc(=O)[nH]c(=O)[nH]1`, the outcome was “inactive”.
With `O=C1Oc2ccccc2C(=O)/C1=C/N1C(=O)/C(=C/c2ccc([N+](=O)[O-])cc2)SC1=S` the EC50 was > 200 µM and the IC50 was 1.1 µM.
With `CN(CCC#N)C1=CCCC1` the EC50 was > 200 µM and the IC50 was > 200 µM.
For `CCc1cccc(C(C)C)c1NC(=O)C(=O)C1C(=O)Nc2ccccc2S1=O` (stereo unspecified), the EC50 was > 91.2 µM and the IC50 was > 91.2 µM.
In the case of `CCOC(=O)C(=CNC(=S)Nc1c(CC)cccc1CC)C(=O)OCC`, the EC50 is reported as > 200 µM and the IC50 is reported as > 200 µM.
In the case of `N#C/C=C/c1cccc(C#N)c1`, the EC50 is reported as > 46.8 µM and the IC50 is reported as > 46.8 µM.
In the case of `COc1c2c(cc3c1C(=O)c1c(O)cccc1C3=O)CC(O)CC2` (stereo unspecified), the EC50 is reported as > 200 µM and the IC50 is reported as > 200 µM.
In the case of `CCN1C(=O)/C(=C2\SC(c3ccccc3)(c3ccccc3)c3ccccc32)SC1=S`, the EC50 is reported as > 200 µM and the IC50 is reported as > 200 µM.
`NC(=O)c1nc(-c2ccc(Cl)c(Cl)c2)nc2ccccc12` was tested, and the outcome was “inactive”.
With `Cc1ccc(-c2nc3n(c2/C=N\N=C(N)N)CCS3)cc1` the EC50 was > 200 µM and the IC50 was 29.5 µM.
For `CCOc1ccc(/C(Cl)=C(\C=O)c2ccc(OC)c(OC)c2)cc1OCC`, the EC50 was > 25.7 µM and the IC50 was 14.1 µM.
With `CCN1N=CSC12C(=O)N(c1ccccc1)C(=O)N2c1ccccc1` (stereo unspecified) the outcome was “inactive”.
For `CC1=NNC(=O)C1C1(C(=O)O)CC(c2c[nH]c3ccccc23)=NC(=S)N1` (stereo unspecified), the EC50 was > 100 µM and the IC50 was 69.2 µM.
For `C=CC1(c2ccc3ccccc3c2)OCC(CC)(CC)CO1`, the EC50 was > 200 µM and the IC50 was 79.4 µM.
In the case of `c1cnc2c(c1)ccc1cccnc12`, the EC50 is reported as > 200 µM and the IC50 is reported as 1.17 µM.
`O=S(=O)(O)c1ccc(N=Nc2cc(S(=O)(=O)O)c3ccccc3c2O)c2ccccc12` was tested, and the EC50 was > 100 µM and the IC50 was > 100 µM.
`CC(=C(C#N)C#N)c1ccc(F)cc1` was tested, and the EC50 was > 138 µM and the IC50 was 112 µM.
With `Nc1nc(=O)nc2[nH]c3c4cccc5cccc(c3nc12)c54` the EC50 was > 200 µM and the IC50 was 141 µM and > 200 µM.
`Cc1cc(O)c(C(C)(C)C)cc1Sc1cc(C(C)(C)C)c(O)cc1C` was tested, and the EC50 was > 200 µM and the IC50 was 6.46 µM.
`CC(=O)Nc1ccc(-c2nnc(SCC(=O)Nc3cccc(Cl)c3)o2)cc1` was tested, and the EC50 was > 46.8 µM and the IC50 was 7.59 µM.
With `COc1ccc(C2CC3(c4ccccc4)ON=C(c4ccccc4)N3c3ccccc3S2)cc1` (stereo unspecified) the EC50 was > 200 µM and the IC50 was > 200 µM.
For `CSC1=NC(=O)CCN1C1OCC(OC(C)=O)C(OC(C)=O)C1OC(C)=O` (stereo unspecified), the EC50 was > 200 µM and the IC50 was 105 µM.
For `Cn1ccoc1=Nc1ccc(Cl)c(Cl)c1`, the EC50 was > 200 µM and the IC50 was > 200 µM.
For `O=C1OC(CCCN2CCCCC2)(c2ccccc2)CC12CCCC2` (stereo unspecified), the EC50 was > 200 µM and the IC50 was 191 µM.
With `Cn1cnc([N+](=O)[O-])c1Sc1nc(N)nc2c1ncn2C1OC(CO)C(O)C1O` (stereo unspecified) the EC50 was > 200 µM and the IC50 was 0.309 µM.
